Values of other authors in patent publication US4559324A, “Polypeptide-diesters, their production and use” (Takeda Chemical Industries, Ltd., priority 1982, dated 1985).

Test system: Substance P
Conditions: S. Rosell and K. Folkers, TIPS, 211 (1982)

Row | Substance | antagonist activity against Substance P
1 | (D-Pro^2, D-Trp^7, D-Trp^9)-Substance P | sufficiently active
2 | (D-Pro^2, D-Phe^7, D-Trp^9)-Substance P | sufficiently active
